Assay results reported in patent publication US9029553B2, “2-anilino nicotinyl linked 2-amino benzothiazole conjugates and process for the preparation thereof” (Council of Scientific & Industrial Research, priority 2011, dated 2015).

Key:
786-0 = assay: NCI SRB GI50 screen; type: cell-based; conditions: Homo sapiens, Renal, 48 hrs exposure, read-out: Growth Inhibition GI50 786-0
Method: (§1) 2-Anilino nicotinyl linked 2-amino benzothiazole conjugates of formula 9-12 were tested against fifty nine human cancer cell lines derived from nine cancer types (leukemia, non-small cell lung cancer, colon cancer, CNS cancer, melanoma, ovarian cancer, renal cancer, prostate cancer and breast cancer) as per NCI protocol. For each compound, dose response curves for individual cell lines were measured at a minimum of five concentrations at 10 fold dilutions. A protocol of 48 hrs continuous drug exposure was used, and a sulforhodamine B (SRB) protein assay was used to estimate cell viability or growth.

A498 = assay: NCI SRB GI50 screen; type: cell-based; conditions: Homo sapiens, Renal, 48 hrs exposure, read-out: Growth Inhibition GI50 A498
Method: as §1

A549/ATCC = assay: NCI SRB GI50 screen; type: cell-based; conditions: Homo sapiens, Non-small lung, 48 hrs exposure, read-out: Growth Inhibition GI50 A549/ATCC
Method: as §1

ACHN = assay: NCI SRB GI50 screen; type: cell-based; conditions: Homo sapiens, Renal, 48 hrs exposure, read-out: Growth Inhibition GI50 ACHN
Method: as §1

CAKI-1 = assay: NCI SRB GI50 screen; type: cell-based; conditions: Homo sapiens, Renal, 48 hrs exposure, read-out: Growth Inhibition GI50 CAKI-1
Method: as §1

CCRF-CEM = assay: NCI SRB GI50 screen; type: cell-based; conditions: Homo sapiens, Leukemia, 48 hrs exposure, read-out: Growth Inhibition GI50 CCRF-CEM
Method: as §1

HCC-2998 = assay: NCI SRB GI50 screen; type: cell-based; conditions: Homo sapiens, Colon, 48 hrs exposure, read-out: Growth Inhibition GI50 HCC-2998
Method: as §1

HCT-15 = assay: NCI SRB GI50 screen; type: cell-based; conditions: Homo sapiens, Colon, 48 hrs exposure, read-out: Growth Inhibition GI50 HCT-15
Method: as §1

HL-60(TB) = assay: NCI SRB GI50 screen; type: cell-based; conditions: Homo sapiens, Leukemia, 48 hrs exposure, read-out: Growth Inhibition GI50 HL-60(TB)
Method: as §1

HOP-62 = assay: NCI SRB GI50 screen; type: cell-based; conditions: Homo sapiens, Non-small lung, 48 hrs exposure, read-out: Growth Inhibition GI50 HOP-62
Method: as §1

HOP-92 = assay: NCI SRB GI50 screen; type: cell-based; conditions: Homo sapiens, Non-small lung, 48 hrs exposure, read-out: Growth Inhibition GI50 HOP-92
Method: as §1

K-562 = assay: NCI SRB GI50 screen; type: cell-based; conditions: Homo sapiens, K562; Leukemia, 48 hrs exposure; read-out: Growth Inhibition GI50 K-562
Method: as §1

LOX IMVI = assay: NCI SRB GI50 screen; type: cell-based; conditions: Homo sapiens, Melanoma, 48 hrs exposure, read-out: Growth Inhibition GI50 LOX IMVI
Method: as §1

MCF7 = assay: NCI SRB GI50 screen; type: cell-based; conditions: Homo sapiens, Breast, 48 hrs exposure, read-out: Growth Inhibition GI50 MCF7
Method: as §1

MDA-MB-468 = assay: NCI SRB GI50 screen; type: cell-based; conditions: Homo sapiens, Breast, 48 hrs exposure, read-out: Growth Inhibition GI50 MDA-MB-468
Method: as §1

MOLT-4 = assay: NCI SRB GI50 screen; type: cell-based; conditions: Homo sapiens, Leukemia, 48 hrs exposure, read-out: Growth Inhibition GI50 MOLT-4
Method: as §1

NCI-H226 = assay: NCI SRB GI50 screen; type: cell-based; conditions: Homo sapiens, Non-small lung, 48 hrs exposure, read-out: Growth Inhibition GI50 NCI-H226
Method: as §1

NCI-H23 = assay: NCI SRB GI50 screen; type: cell-based; conditions: Homo sapiens, Non-small lung, 48 hrs exposure, read-out: Growth Inhibition GI50 NCI-H23
Method: as §1

NCI-H522 = assay: NCI SRB GI50 screen; type: cell-based; conditions: Homo sapiens, Non-small lung, 48 hrs exposure, read-out: Growth Inhibition GI50 NCI-H522
Method: as §1

OVCAR-4 = assay: NCI SRB GI50 screen; type: cell-based; conditions: Homo sapiens, Ovarian, 48 hrs exposure, read-out: Growth Inhibition GI50 OVCAR-4
Method: as §1

SF-295 = assay: NCI SRB GI50 screen; type: cell-based; conditions: Homo sapiens, CNS, 48 hrs exposure, read-out: Growth Inhibition GI50 SF-295
Method: as §1

SK-MEL-28 = assay: NCI SRB GI50 screen; type: cell-based; conditions: Homo sapiens, Melanoma, 48 hrs exposure, read-out: Growth Inhibition GI50 SK-MEL-28
Method: as §1

SK-MEL-2 = assay: NCI SRB GI50 screen; type: cell-based; conditions: Homo sapiens, Melanoma, 48 hrs exposure, read-out: Growth Inhibition GI50 SK-MEL-2
Method: as §1

SK-MEL-5 = assay: NCI SRB GI50 screen; type: cell-based; conditions: Homo sapiens, Melanoma, 48 hrs exposure, read-out: Growth Inhibition GI50 SK-MEL-5
Method: as §1

SK-OV-3 = assay: NCI SRB GI50 screen; type: cell-based; conditions: Homo sapiens, Ovarian, 48 hrs exposure, read-out: Growth Inhibition GI50 SK-OV-3
Method: as §1

SNB-75 = assay: NCI SRB GI50 screen; type: cell-based; conditions: Homo sapiens, CNS, 48 hrs exposure, read-out: Growth Inhibition GI50 SNB-75
Method: as §1

SR = assay: NCI SRB GI50 screen; type: cell-based; conditions: Homo sapiens, Leukemia, 48 hrs exposure, read-out: Growth Inhibition GI50 SR
Method: as §1

UACC-62 = assay: NCI SRB GI50 screen; type: cell-based; conditions: Homo sapiens, Melanoma, 48 hrs exposure, read-out: Growth Inhibition GI50 UACC-62
Method: as §1

UO-31 = assay: NCI SRB GI50 screen; type: cell-based; conditions: Homo sapiens, Renal, 48 hrs exposure, read-out: Growth Inhibition GI50 UO-31
Method: as §1

Sw-620 = assay: NCI SRB GI50 screen; type: cell-based; conditions: Homo sapiens, Colon, 48 hrs exposure, read-out: Growth Inhibition GI50 SW-620
Method: as §1

TK-10 = assay: NCI SRB GI50 screen; type: cell-based; conditions: Homo sapiens, Renal, 48 hrs exposure, read-out: Growth Inhibition GI50 TK-10
Method: as §1

Structure (SMILES): COc1cc(Nc2ncccc2C(=O)Nc2nc3ccc(F)cc3s2)cc(OC)c1OC [Compound 11, N3-(6-fluoro-1,3-benzothiazol-2-yl)-2-(3,4,5-trimethoxyanilino)nicotinamide]
- GI50 (786-0): 5510 nM
- GI50 (A498): 3450 nM
- GI50 (A549/ATCC): 3110 nM
- GI50 (ACHN): 4820 nM
- GI50 (CAKI-1): 3150 nM
- GI50 (CCRF-CEM): 3260 nM
- GI50 (HCC-2998): 2940 nM
- GI50 (HCT-15): 4380 nM
- GI50 (HL-60(TB)): 1860 nM
- GI50 (HOP-62): 5780 nM
- GI50 (HOP-92): 1480 nM
- GI50 (K-562): 1680 nM
- GI50 (LOX IMVI): 3870 nM
- GI50 (MCF7): 3230 nM
- GI50 (MDA-MB-468): 1220 nM
- GI50 (MOLT-4): 2110 nM
- GI50 (NCI-H226): 2950 nM
- GI50 (NCI-H23): 2270 nM
- GI50 (NCI-H522): 1550 nM
- GI50 (OVCAR-4): 2730 nM
- GI50 (SF-295): 2550 nM
- GI50 (SK-MEL-28): 4330 nM
- GI50 (SK-MEL-2): 2340 nM
- GI50 (SK-MEL-5): 1630 nM
- GI50 (SK-OV-3): 7400 nM
- GI50 (SNB-75): 4480 nM
- GI50 (SR): 2970 nM
- GI50 (UACC-62): 1710 nM
- GI50 (UO-31): 3370 nM
- melting point: 214 to 216 °C

Structure (SMILES): COc1ccc2nc(NC(=O)c3cccnc3Nc3cc(OC)c(OC)c(OC)c3)sc2c1 [Compound 12, N-3-(6-methoxy-1,3-benzothiazol-2-yl)-2-(3,4,5-trimethoxyanilino) nicotinamide]
- GI50 (786-0): 5600 nM
- GI50 (A498): 2190 nM
- GI50 (A549/ATCC): 7380 nM
- GI50 (ACHN): 6470 nM
- GI50 (CAKI-1): 16400 nM
- GI50 (CCRF-CEM): 20100 nM
- GI50 (HCC-2998): 17000 nM
- GI50 (HCT-15): 11200 nM
- GI50 (HL-60(TB)): 32300 nM
- GI50 (HOP-62): 6330 nM
- GI50 (HOP-92): 2240 nM
- GI50 (K-562): 8910 nM
- GI50 (LOX IMVI): 15700 nM
- GI50 (MCF7): 510 nM
- GI50 (MDA-MB-468): 17800 nM
- GI50 (MOLT-4): 24200 nM
- GI50 (NCI-H226): 10700 nM
- GI50 (NCI-H23): 5380 nM
- GI50 (NCI-H522): 2600 nM
- GI50 (OVCAR-4): 15000 nM
- GI50 (SF-295): 8340 nM
- GI50 (SK-MEL-28): 7880 nM
- GI50 (SK-MEL-5): 11300 nM
- GI50 (SK-OV-3): 3720 nM
- GI50 (SNB-75): 2890 nM
- GI50 (SR): 2310 nM
- GI50 (Sw-620): 11800 nM
- GI50 (TK-10): 4310 nM
- GI50 (UACC-62): 8450 nM
- GI50 (UO-31): 9300 nM
- melting point: 121 to 125 °C (dec.)

Structure (SMILES): O=C(Nc1nc2ccc(F)cc2s1)c1cccnc1Nc1ccc(Cl)cc1 [Compound 9, N3-(6-fluoro-1,3-benzothiazol-2-yl)-2-(4-chloroanilino)nicotinamide]
- GI50 (786-0): 2780 nM
- GI50 (A498): 1920 nM
- GI50 (A549/ATCC): 2320 nM
- GI50 (ACHN): 3080 nM
- GI50 (CAKI-1): 2890 nM
- GI50 (CCRF-CEM): 1060 nM
- GI50 (HCC-2998): 2750 nM
- GI50 (HCT-15): 3320 nM
- GI50 (HL-60(TB)): 1740 nM
- GI50 (HOP-62): 2700 nM
- GI50 (HOP-92): 1690 nM
- GI50 (K-562): 726 nM
- GI50 (LOX IMVI): 2620 nM
- GI50 (MCF7): 2380 nM
- GI50 (MDA-MB-468): 1610 nM
- GI50 (MOLT-4): 2220 nM
- GI50 (NCI-H226): 2320 nM
- GI50 (NCI-H23): 1670 nM
- GI50 (NCI-H522): 1020 nM
- GI50 (OVCAR-4): 2920 nM
- GI50 (SF-295): 1800 nM
- GI50 (SK-MEL-28): 3510 nM
- GI50 (SK-MEL-2): 1250 nM
- GI50 (SK-MEL-5): 1110 nM
- GI50 (SK-OV-3): 2230 nM
- GI50 (SNB-75): 2950 nM
- GI50 (SR): 2280 nM
- GI50 (Sw-620): 1020 nM
- GI50 (TK-10): 3000 nM
- GI50 (UACC-62): 1940 nM
- GI50 (UO-31): 1940 nM
- melting point: 254 to 257 °C

Structure (SMILES): O=C(Nc1nc2ccc(F)cc2s1)c1cccnc1Nc1ccc(Cl)cc1Cl [Compound 10, N3-(6-fluoro-1,3-benzothiazol-2-yl)-2-(2,4-dichloroanilino)nicotinamide]
- GI50 (786-0): 3770 nM
- GI50 (A498): 2830 nM
- GI50 (A549/ATCC): 2960 nM
- GI50 (ACHN): 3720 nM
- GI50 (CAKI-1): 1500 nM
- GI50 (CCRF-CEM): 1850 nM
- GI50 (HCC-2998): 3540 nM
- GI50 (HCT-15): 3740 nM
- GI50 (HL-60(TB)): 1830 nM
- GI50 (HOP-62): 3940 nM
- GI50 (HOP-92): 1480 nM
- GI50 (K-562): 1780 nM
- GI50 (LOX IMVI): 4190 nM
- GI50 (MCF7): 3070 nM
- GI50 (MDA-MB-468): 1880 nM
- GI50 (MOLT-4): 2270 nM
- GI50 (NCI-H226): 2700 nM
- GI50 (NCI-H23): 2340 nM
- GI50 (NCI-H522): 1480 nM
- GI50 (OVCAR-4): 2960 nM
- GI50 (SF-295): 1830 nM
- GI50 (SK-MEL-28): 4090 nM
- GI50 (SK-MEL-2): 1740 nM
- GI50 (SK-MEL-5): 1710 nM
- GI50 (SK-OV-3): 2500 nM
- GI50 (SNB-75): 2550 nM
- GI50 (SR): 3030 nM
- GI50 (Sw-620): 3400 nM
- GI50 (TK-10): 3050 nM
- GI50 (UACC-62): 2120 nM
- GI50 (UO-31): 1100 nM
- melting point: 208 to 210 °C
